# Test results: patent publication US8163718B2, “Nucleoside analogues containing phosphonate or phosphonamide groups” (Gilead Sciences, Inc., priority 2008, dated 2012)
# Tested on: naturally occurring non-Hodgkin's lymphoma
# Assay: Efficacy in a dog with naturally occurring non-Hodgkin's lymphoma (RECIST)
# Type: in vivo
# Set-up: key to Lymphnode R PSLN size / Lymphnode L PopLN size / Lymphnode L SMLN size / Lymphnode R SMLN size / Lymphnode L PSLN size: WNL refers to when a lymph node is decreased to a size considered within normal ranges for that node
# Conditions: for % change of sum of lymphnodes: vs baseline sum; for Sum of lymphnodes: Day 0 pre treatment sum 16.9
# Experimental: Compound (21) was evaluated for efficacy in a dog with naturally occurring non-Hodgkin's lymphoma (NHL). Canine NHL has proven to be a relevant model for preclinical evaluation of new therapeutics, both for initial induction and rescue of drug-resistant relapse (Reference Vail D M, Thamm D H. Spontaneously occurring tumors in companion animals as models for drug development. In: Teisher B A, ed. Anticancer Drug Development Guide. 2nd ed. Totowa (NJ): Humana Press Inc; 2004; 259-286.) Evaluation of novel therapeutic approaches in dogs with spontaneous cancer offers potential benefit to canine patients and a rapid assessment of therapeutic index. Because the tumors arise spontaneously in an immunologically intact host and have greater heterogeneity than passaged cell lines, it is not surprising that responses to standard chemotherapeutic agents in canine malignancies are similar to those of the corresponding tumors in man and that the preclinical results attained may be more predictive of the activity in humans (references; Khanna C, Paoloni M. Translation of new cancer treatments from pet dogs to humans. Nature Rev Cancer. 2008; 8:7-16.; Vail D M, Young K M. Canine lymphoma and lymphoid leukemia. In: Withrow S J, Vail D M, eds. Small Animal Clinical Oncology. 4th Ed. St. Louis (MO): Saunders; 2007. p. 699-733.) Non-Hodgkin's lymphoma in dogs represents a relatively homogenous population with respect to histological type as defined by the REAL/WHO or NCI-Working Formulation schema (i.e., 85% are medium- to high-grade B-cell NHL) with the majority being diffuse large B-cell lymphoma (reference Jacobs R M, Messick J B, Valli V E. Tumors of the hemolymphatic system. In: Meuten D J, editor. Tumors in Domestic Animals. 4th Ed. Ames (IA): Iowa State Press; 2002:119-198).
# Compound (21) was administered at a dose of 0.3 mg/kg of body weight by 30 minute IV infusion in Sterile Saline Injection (0.9% sodium chloride for injection) (total volume 2 ml/kg or 100 ml) once every 21 days to a dog that had non-Hodgkin's lymphoma involving multiple lymphnodes. Diagnosis was confirmed by histological evaluation of the tumor. The effect of treatment on the tumor was measured using the Response Evaluation Criteria in Solid Tumors (RECIST) Guideline (Therasse et al 2000). The size of the tumors and response to treatment was evaluated by in these peripherally accessible lymph nodes, by measuring the longest dimension using callipers and evaluating changes in the individual tumor measurement and their sums. […] Confirmation was done by cytological examination of an aspirated biopsy to confirm the absence of tumor cells.
# [1] = Day 7 (printed under the Day 1 column)
# [2] = Day 14 (printed under the Day 7 column)
# [3] = Day 21 (printed under the Day 14 column)
# [4] = Day 28 (printed under the Day 21 column)
# [5] = Day 42 (printed under the Day 28 column)
structure (smiles),measurement,setting,value
CCCOc1nc(N)nc2c1ncn2CCOCP(=O)(N1CCC[C@H]1C(=O)OCC)N1CCC[C@H]1C(=O)OCC [Example 21],% change of sum of lymphnodes,Day 1 (printed under the Day 0 column),−13.0%
same,Lymphnode L PopLN longest dimension,"Day 1, 0.3 mg/kg IV once every 21 days, Day 0 pre treatment 2.3",2.1 cm
same,Lymphnode R SMLN longest dimension,"Day 1, 0.3 mg/kg IV once every 21 days, Day 0 pre treatment 2.9",3.1 cm
same,Lymphnode L SMLN longest dimension,"Day 1, 0.3 mg/kg IV once every 21 days, Day 0 pre treatment 3.1",2.0 cm
same,Lymphnode R PSLN longest dimension,"Day 1, 0.3 mg/kg IV once every 21 days, Day 0 pre treatment 3.6",3.6 cm
same,Lymphnode L PSLN longest dimension,"Day 1, 0.3 mg/kg IV once every 21 days, Day 0 pre treatment 5.0",3.9 cm
same,Sum of lymphnodes,"Day 1, 0.3 mg/kg IV once every 21 days",14.7 cm
same,Change of sum of lymphnodes,Day 1 vs Day 0 pre treatment sum 16.9,−2.2 cm
same,Response (RECIST),[1],"PR (Partial Response (PR) if at least a 30% decrease in the sum of the LD of target lesions, taking as reference the baseline sum)"
same,% change of sum of lymphnodes,[1],−66.3%
same,Lymphnode L PopLN longest dimension,"Day 7, 0.3 mg/kg IV once every 21 days, Day 0 pre treatment 2.3",1.6 cm
same,Lymphnode R SMLN longest dimension,"Day 7, 0.3 mg/kg IV once every 21 days, Day 0 pre treatment 2.9",1.0 cm
same,Lymphnode L SMLN longest dimension,"Day 7, 0.3 mg/kg IV once every 21 days, Day 0 pre treatment 3.1",1.1 cm
same,Lymphnode R PSLN longest dimension,"Day 7, 0.3 mg/kg IV once every 21 days, Day 0 pre treatment 3.6",1.0 cm
same,Lymphnode L PSLN longest dimension,"Day 7, 0.3 mg/kg IV once every 21 days, Day 0 pre treatment 5.0",1.0 cm
same,Sum of lymphnodes,Day 7,5.7 cm
same,Change of sum of lymphnodes,Day 7 vs Day 0 pre treatment sum 16.9,−11.2 cm
same,Response (RECIST),[2],"PR (Partial Response (PR) if at least a 30% decrease in the sum of the LD of target lesions, taking as reference the baseline sum)"
same,% change of sum of lymphnodes,[2],−69.2%
same,Lymphnode L PopLN longest dimension,"Day 14, 0.3 mg/kg IV once every 21 days, Day 0 pre treatment 2.3",1.0 cm
same,Lymphnode R SMLN longest dimension,"Day 14, 0.3 mg/kg IV once every 21 days, Day 0 pre treatment 2.9",1.0 cm
same,Lymphnode L SMLN longest dimension,"Day 14, 0.3 mg/kg IV once every 21 days, Day 0 pre treatment 3.1",1.0 cm
same,Lymphnode R PSLN longest dimension,"Day 14, 0.3 mg/kg IV once every 21 days, Day 0 pre treatment 3.6",1.0 cm
same,Lymphnode L PSLN longest dimension,"Day 14, 0.3 mg/kg IV once every 21 days, Day 0 pre treatment 5.0",1.2 cm
same,Sum of lymphnodes,Day 14,5.2 cm
same,Change of sum of lymphnodes,Day 14 vs Day 0 pre treatment sum 16.9,−11.7 cm
same,Lymphnode L PopLN longest dimension,"Day 21 (Treatment #2), 0.3 mg/kg IV once every 21 days, Day 0 pre treatment 2.3",1.3 cm
same,Lymphnode R SMLN longest dimension,"Day 21 (Treatment #2), 0.3 mg/kg IV once every 21 days, Day 0 pre treatment 2.9",2.0 cm
same,Lymphnode L SMLN longest dimension,"Day 21 (Treatment #2), 0.3 mg/kg IV once every 21 days, Day 0 pre treatment 3.1",2.3 cm
same,Lymphnode R PSLN longest dimension,"Day 21 (Treatment #2), 0.3 mg/kg IV once every 21 days, Day 0 pre treatment 3.6",2.7 cm
same,Lymphnode L PSLN longest dimension,"Day 21 (Treatment #2), 0.3 mg/kg IV once every 21 days, Day 0 pre treatment 5.0",2.8 cm
same,Sum of lymphnodes,Day 21 (Treatment #2),11.1 cm
same,Response (RECIST),[3],"PR (Partial Response (PR) if at least a 30% decrease in the sum of the LD of target lesions, taking as reference the baseline sum)"
same,% change of sum of lymphnodes,[3],−34.3%
same,Change of sum of lymphnodes,Day 21 vs Day 0 pre treatment sum 16.9,−5.8 cm
same,Response (RECIST),[4],"PR (Partial Response (PR) if at least a 30% decrease in the sum of the LD of target lesions, taking as reference the baseline sum)"
same,% change of sum of lymphnodes,[4],−67.5%
same,Lymphnode R SMLN longest dimension,"Day 28, 0.3 mg/kg IV once every 21 days, Day 0 pre treatment 2.9",1.0 cm
same,Lymphnode L SMLN longest dimension,"Day 28, 0.3 mg/kg IV once every 21 days, Day 0 pre treatment 3.1",1.5 cm
same,Lymphnode R PSLN longest dimension,"Day 28, 0.3 mg/kg IV once every 21 days, Day 0 pre treatment 3.6",1.5 cm
same,Lymphnode L PSLN longest dimension,"Day 28, 0.3 mg/kg IV once every 21 days, Day 0 pre treatment 5.0",1.5 cm
same,Sum of lymphnodes,Day 28,5.5 cm
same,Change of sum of lymphnodes,Day 28 vs Day 0 pre treatment sum 16.9,−11.4 cm
same,Lymphnode L PopLN size,"Day 42 (Treatment #3), 0.3 mg/kg IV once every 21 days, Day 0 pre treatment 2.3",WNL
same,Lymphnode R SMLN size,"Day 42 (Treatment #3), 0.3 mg/kg IV once every 21 days, Day 0 pre treatment 2.9",WNL
same,Lymphnode L SMLN size,"Day 42 (Treatment #3), 0.3 mg/kg IV once every 21 days, Day 0 pre treatment 3.1",WNL**
same,Lymphnode R PSLN size,"Day 42 (Treatment #3), 0.3 mg/kg IV once every 21 days, Day 0 pre treatment 3.6",WNL
same,Lymphnode L PSLN size,"Day 42 (Treatment #3), 0.3 mg/kg IV once every 21 days, Day 0 pre treatment 5.0",WNL
same,Response (RECIST),[5],CR (Complete Response (CR) if lymphnodes returned to a size within normal limits)
same,% change of sum of lymphnodes,[5],−100%
same,Response to treatment,"after one treatment, 0.3 mg/kg IV",Partial Response
same,reduction in tumor size,"starting on Day 7 after the first treatment, continued improvement to day 42",significant reduction in tumor size
same,Response to treatment,"with continued treatment, 0.3 mg/kg IV once every 21 days",Complete Response with complete elimination of the tumor
